# Columns and labels:
# MDA-MB-134VI cells = assay: Cell growth-inhibitory effect of combined use (T/C), CellTiter-Glo 2.0; conditions: for viability at 0.1 µM: Homo sapiens, MDA-MB-134-VI, 120 h, read-out: T/C (treated/control) cell viability
# Experimental: The cell viability was measured using CellTiter-Glo 2.0 (Promega). […] The number of cells seeded was 500 cells/80 μL per well. […] After drug addition, the cells were further incubated at 37° C. and 5% CO2 for 120 hours. Experiments were carried out in triplicate (3 wells per treatment group). The cell viability was calculated by adding 100 μL of CellTiter-Glo 2.0 reagent per well, incubating at room temperature for 30 minutes, and then measuring the chemiluminescence of each well with a plate reader (EnSpire). The cell viability in the case of drug addition was calculated as a ratio with respect to the control group, which was set to 100%, according to the following formula, and the average value of the data of three wells was used for the analysis.
# Cell viability (%)=(chemiluminescence in the case of drug addition)/(chemiluminescence of control group)×100
# breast cancer = conditions: phase II; subpopulation of FGF pathway-amplified breast cancer patients; cited from earlier work
Compound,viability at 0.1 µM (MDA-MB-134VI cells),median value of the mean progression-free survival (PFS) (breast cancer),"T/C (treated/control) cell viability (MDA-MB-134VI cells; MDA-MB-134VI, drug alone at 1 μM, 120 hours)"
"C=CC(=O)N1CC[C@H](n2nc(C#Cc3cc(OC)cc(OC)c3)c3c(N)ncnc32)C1 [compound 1, (S)-1-(3-(4-amino-3-((3,5-dimethoxyphenyl)ethynyl)-1H-pyrazolo[3,4-d]pyrimidin-1-yl)pyrrolidin-1-yl)prop-2-en-1-one]",35%,–,–
C[C@]12CC[C@@H]3c4ccc(O)cc4C[C@@H](CCCCCCCCC[S+]([O-])CCCC(F)(F)C(F)(F)F)[C@H]3[C@@H]1CC[C@@H]2O (stereo partly shown) [fulvestrant],75%,5.5 months,–
4-hydroxytamoxifen,–,–,65%

# — US20220023300A1, “THERAPEUTIC AND PROPHYLACTIC METHOD FOR TUMOR TREATABLE WITH ENDOCRINE THERAPY BY COMBINED USE OF FIBROBLAST GROWTH FACTOR RECEPTOR INHIBITOR WITH ENDOCRINE THERAPY” (TAIHO PHARMACEUTICAL CO., LTD., priority 2018, published 2022)
